# Measurements reported in ChEMBL document CHEMBL1201862, “PubChem BioAssay data set” (2004).
#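 Exposure lasted 48 hours, with cells grown in 96-well plates and compounds tested at five concentrations. GI50: concentration for 50% inhibition of growth.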 Calls of active or inactive are those of the source. Rule as the data show it: active = GI50 up to about 1.1 µM and inactive = higher.
# How the values were obtained:
# Assay in all cases: NCI anticancer screen, dose series, 48 h
# [1] = test system: HCT-116
# [2] = test system: A549
# [3] = test system: CAKI-1
# [4] = test system: PC-3
# [5] = test system: NCI-H460
# [6] = test system: DU-145
# [7] = test system: SF-539
# [8] = test system: RPMI-8226
# [9] = test system: OVCAR-4
# [10] = test system: KM12
# [11] = test system: HCC 2998
# [12] = test system: HCT-15
# [13] = test system: SN12C
# [14] = test system: Hs-578T
# [15] = test system: TK-10
# [16] = test system: HOP-92
# [17] = test system: UACC-62
# [18] = test system: K562
# [19] = test system: NCI/ADR-RES
# [20] = test system: OVCAR-8
SMILES,GI50 [1],GI50 [2],GI50 [3],GI50 [4],GI50 [5],GI50 [6],GI50 [7],GI50 [8],GI50 [9],GI50 [10],GI50 [11],GI50 [12],GI50 [13],GI50 [14],GI50 [15],GI50 [16],GI50 [17],GI50 [18],GI50 [19],GI50 [20]
Clc1ccc(Nc2nc(Cl)c3nc[nH]c3n2)cc1Cl,29.5 µM (inactive),30.1 µM (inactive),3.29 µM (inactive),14.7 µM (inactive),14.5 µM (inactive),28.5 µM (inactive),> 10 µM (inactive),29 µM (inactive),52.7 µM (inactive),18.1 µM (inactive),16.9 µM (inactive),21 µM,43.8 µM (inactive),22.1 µM (inactive),32.4 µM (inactive),23.4 µM (inactive),33.6 µM (inactive),37.2 µM (inactive),35.6 µM (inactive),35.4 µM (inactive)
O=C(O)C1CC(c2ccccc2)=NN1c1ccccc1 (stereo not given),66.7 µM (inactive),70 µM (inactive),43.6 µM (inactive),41 µM (inactive),54.7 µM (inactive),96.8 µM (inactive),93.5 µM (inactive),40.3 µM (inactive),67.6 µM (inactive),42.9 µM (inactive),24.1 µM (inactive),34 µM,> 100 µM (inactive),25.4 µM (inactive),64 µM (inactive),69.3 µM (inactive),> 100 µM (inactive),47.5 µM (inactive),48.5 µM (inactive),> 100 µM (inactive)
[O-][S+]1SC(=S)C2C=CC=CC21 (stereo not given),85.5 µM (inactive),38.2 µM (inactive),> 100 µM (inactive),> 100 µM (inactive),34 µM (inactive),> 100 µM (inactive),> 100 µM (inactive),92.9 µM (inactive),> 100 µM (inactive),> 100 µM (inactive),> 100 µM (inactive),40.9 µM,> 100 µM (inactive),84.3 µM (inactive),> 100 µM (inactive),> 100 µM (inactive),58.5 µM (inactive),> 100 µM (inactive),> 100 µM (inactive),> 100 µM (inactive)
COc1cc2c(c(O)c1OC)CC1CCC(=O)N1C2c1cccc2ccccc12 (stereo not given),20.4 µM (inactive),31.6 µM (inactive),19.5 µM (inactive),15.6 µM (inactive),22.9 µM (inactive),18.5 µM (inactive),16.1 µM (inactive),19.3 µM (inactive),> 10 µM (inactive),23.9 µM (inactive),16 µM (inactive),24.4 µM,16.9 µM (inactive),19.7 µM (inactive),39.4 µM (inactive),14.1 µM (inactive),14.2 µM (inactive),35.3 µM (inactive),19.4 µM (inactive),20 µM (inactive)
Cn1cnc([N+](=O)[O-])c1Sc1nc(N)nc2c1ncn2C1OC(CO)C(O)C1O (stereo not given),3.85 µM (inactive),11 µM (inactive),6.19 µM (inactive),1.52 µM (inactive),1.69 µM (inactive),2.36 µM (inactive),2.9 µM (inactive),2.98 µM (inactive),16.4 µM (inactive),5.51 µM (inactive),2.77 µM (inactive),6.84 µM,7.11 µM (inactive),1.97 µM (inactive),6.76 µM (inactive),1.33 µM (inactive),2.53 µM (inactive),5.13 µM (inactive),0.182 µM (active),2.51 µM (inactive)
COc1cc(/C=C/c2ccc(/C=C/c3cc(OC)c(OC)c(OC)c3)cc2)cc(OC)c1OC,28.7 µM (inactive),40.9 µM (inactive),21.6 µM (inactive),27.5 µM (inactive),25.5 µM (inactive),88.7 µM (inactive),4.6 µM (inactive),41.6 µM (inactive),3.98 µM (inactive),29.5 µM (inactive),22.2 µM (inactive),> 100 µM,56.8 µM (inactive),18.9 µM (inactive),17.6 µM (inactive),15.4 µM (inactive),7.89 µM (inactive),96.2 µM (inactive),22.2 µM (inactive),12.2 µM (inactive)
C/C(=N\[N+](C)(C)C)c1ccc(C)c(C)c1,76.9 µM (inactive),7.62 µM (inactive),> 10 µM (inactive),36.9 µM (inactive),29.4 µM (inactive),64.3 µM (inactive),> 10 µM (inactive),54 µM (inactive),88.1 µM (inactive),24.9 µM (inactive),> 10 µM (inactive),> 10 µM,20.4 µM (inactive),> 10 µM (inactive),45.9 µM (inactive),> 10 µM (inactive),> 100 µM (inactive),46.1 µM (inactive),> 10 µM (inactive),55.1 µM (inactive)
CC1=CC[C@H](C(C)C)C(C(O)[C@@H](C)O[Si](c2ccccc2)(c2ccccc2)C(C)(C)C)C1=O (stereo not given in full),10.6 µM (inactive),14.7 µM (inactive),14 µM (inactive),14 µM (inactive),14.8 µM (inactive),21.4 µM (inactive),20.1 µM (inactive),9.73 µM (inactive),15.5 µM (inactive),18.5 µM (inactive),12.7 µM (inactive),13.9 µM,17.9 µM (inactive),28 µM (inactive),15.7 µM (inactive),20.8 µM (inactive),14.8 µM (inactive),9.93 µM (inactive),16.7 µM (inactive),22.8 µM (inactive)
COc1ccc(-c2oc3c(OC)c(OC)c(OC)c(O)c3c(=O)c2OC)cc1OC,24.9 µM (inactive),27.5 µM (inactive),40.4 µM (inactive),18 µM (inactive),17.8 µM (inactive),36.2 µM (inactive),19.4 µM (inactive),16.7 µM (inactive),26.5 µM (inactive),24.4 µM (inactive),19.3 µM (inactive),14 µM,26.2 µM (inactive),3.01 µM (inactive),36.2 µM (inactive),0.243 µM (active),21.8 µM (inactive),10.6 µM (inactive),13.3 µM (inactive),25.4 µM (inactive)
CC(C)(C)c1cc(OCc2nnc3sc(Cc4ccccc4)nn23)c(Cl)cc1OCc1nnc2sc(Cc3ccccc3)nn12,24.3 µM (inactive),28.8 µM (inactive),34.3 µM (inactive),30.1 µM (inactive),17.7 µM (inactive),33 µM (inactive),30.8 µM (inactive),20.7 µM (inactive),24.8 µM (inactive),18.8 µM (inactive),4.4 µM (inactive),33.4 µM,44.6 µM (inactive),> 100 µM (inactive),30.1 µM (inactive),15.8 µM (inactive),19.5 µM (inactive),14.5 µM (inactive),76 µM (inactive),17.1 µM (inactive)
Clc1ccc(C2NN=C3c4ccccc4OCC32)cc1 (stereo not given),2.81 µM (inactive),5.41 µM (inactive),12.2 µM (inactive),4.11 µM (inactive),4.3 µM (inactive),14.9 µM (inactive),2.17 µM (inactive),2.44 µM (inactive),13.4 µM (inactive),3.64 µM (inactive),2.62 µM (inactive),3.08 µM,5.73 µM (inactive),3.2 µM (inactive),22.8 µM (inactive),19.6 µM (inactive),5.07 µM (inactive),3.39 µM (inactive),2.35 µM (inactive),3.94 µM (inactive)
C[C@@H]1O[C@@H](O[C@H]2CC[C@]3(C=O)[C@H]4CC[C@]5(C)[C@@H](C6=CC(=O)OC6)CC[C@]5(O)[C@@H]4CC[C@]3(O)C2)[C@H](O)[C@H](O)[C@H]1O [CONVALLATOXIN],< 0.01 µM (active),< 0.01 µM (active),1.23e-05 µM (active),2.62e-05 µM (active),8.47e-06 µM (active),6.65e-06 µM (active),1.83e-05 µM (active),4.45e-05 µM (active),7.28e-06 µM (active),8.39e-05 µM (active),< 0.01 µM (active),4.69e-05 µM,8.69e-06 µM (active),< 0.01 µM (active),2.88e-05 µM (active),4.83e-05 µM (active),5.85e-05 µM (active),4.92e-05 µM (active),1.26e-05 µM (active),2.94e-05 µM (active)
COc1cc(NC=C2C(=O)OC(C)(C)OC2=O)c(OC)c(C)c1OC,> 100 µM (inactive),> 100 µM (inactive),> 83.4 µM (inactive),> 100 µM (inactive),> 100 µM (inactive),> 100 µM (inactive),> 100 µM (inactive),> 100 µM (inactive),> 74 µM (inactive),> 100 µM (inactive),> 100 µM (inactive),> 100 µM,> 100 µM (inactive),> 100 µM (inactive),> 100 µM (inactive),> 100 µM (inactive),> 100 µM (inactive),> 100 µM (inactive),> 100 µM (inactive),> 100 µM (inactive)
COc1ccc(-c2cc(-c3ccccc3)n(C3OC(COC(C)=O)C(OC(C)=O)C(OC(C)=O)C3OC(C)=O)c(=S)c2C#N)cc1 (stereo not given),6.07 µM (inactive),10.6 µM (inactive),6.52 µM (inactive),12.4 µM (inactive),7.48 µM (inactive),11.7 µM (inactive),3.88 µM (inactive),3.28 µM (inactive),2.6 µM (inactive),16.9 µM (inactive),22.3 µM (inactive),26.1 µM,9.79 µM (inactive),5.71 µM (inactive),25.9 µM (inactive),4.39 µM (inactive),4.79 µM (inactive),3.61 µM (inactive),11 µM (inactive),3.58 µM (inactive)
